US9695155B2, “Herbicidal substituted pyrimidinyloxy benzene compounds” (E. I. DU PONT DE NEMOURS AND COMPANY, priority 2013, dated 2017)

How the values were obtained:
giant foxtail [1] = experiment: Test A preemergence; assay type: in vivo, Setaria faberii
Summary of the method: (§1)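 Compounds in non-phytotoxic solvent with surfactant applied as soil spray preemergence, or postemergence to plants 2-10 cm at one- to two-leaf stage, in loam/sand. After approximately 10 days in greenhouse, injury rated visually versus untreated controls, 0 (no effect) to 100 (complete control).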

barnyardgrass = experiment: Test A postemergence; assay type: in vivo, Echinochloa crus-galli
Summary of the method: as §1

giant foxtail [2] = experiment: Test A postemergence; assay type: in vivo, Setaria faberii
Summary of the method: as §1

morningglory = experiment: Test A postemergence; assay type: in vivo, Ipomoea spp.
Summary of the method: as §1

pigweed = experiment: Test A postemergence; assay type: in vivo, Amaranthus retroflexus
Summary of the method: as §1

Heteranthera limosa = experiment: Test B flooded paddy test; assay type: in vivo; settings: Flood, 250 g ai/ha, 0 to 100 scale where 0 is no effect and 100 is complete control
Summary of the method: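 Scores from 0 (no effect) to 100 (complete control) are visual comparisons with controls, taken 13 to 15 days after compound was applied into floodwater 3 cm deep around 2-leaf plants.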

Italian ryegrass = experiment: Test C postemergence; assay type: in vivo, Lolium multiflorum
Text: Seeds of plant species selected from blackgrass (Alopecurus myosuroides), Italian ryegrass (Lolium multiflorum), wheat, winter (winter wheat, Triticum aestivum), galium (catchweed bedstraw, Galium aparine), corn (Zea mays), large (Lg) crabgrass (Digitaria sanguinalis), giant foxtail (Setaria faberii), johnsongrass (Sorghum halepense), lambsquarters (Chenopodium album), morningglory (Ipomoea coccinea), yellow nutsedge (Cyperus esculentus), pigweed (Amaranthus retroflexus), ragweed (common ragweed, Ambrosia elatior), soybean (Glycine max), barnyardgrass (Echinochloa crus-galli), oilseed rape (Brassica napus), waterhemp (common waterhemp, Amaranthus rudis), kochia (Kochia scoparia), wild oat (Avena fatua), surinam grass (Brachiaria decumbens), foxtail, green (green foxtail, Setaria viridis), goosegrass (Eleusine indica), bromegrass, downy (downy bromegrass, Bromus tectorum), nightshade (eastern black nightshade, Solanum ptycanthum), cocklebur (common cocklebur, Xanthium strumarium), cupgrass, woolly (woolly cupgrass, Eriochloa villosa), bermudagrass (Cynodon dactylon), sunflower, (common oilseed sunflower, Helianthus annuus), Russian thistle (Salsola kali), and velvetleaf (Abutilon theophrasti) were planted into a blend of loam soil and sand and treated preemergence with test chemicals formulated in a non-phytotoxic solvent mixture which included a surfactant.
At the same time, plants selected from these crop and weed species and also barley, winter (winter barley, Hordeum vulgare), windgrass (Apera spica-venti), chickweed (common chickweed, Stellaria media), deadnettle (henbit deadnettle, Lamium amplexicaule), and canarygrass (littleseed canarygrass, Phalaris minor) were planted in pots containing Redi-Earth® planting medium (Scotts Company, 14111 Scottslawn Road, Marysville, Ohio 43041) comprising spaghnum peat moss, vermiculite, wetting agent and starter nutrients and treated with postemergence applications of test chemicals formulated in the same manner. Plants ranged in height from 2 to 18 cm (1- to 4-leaf stage) for postemergence treatments. Treated plants and controls were maintained in a greenhouse for 13 to 15 days, after which time all species were compared to controls and visually evaluated. Plant response ratings, summarized in Table C, are based on a scale of 0 to 100 where 0 is no effect and 100 is complete control. A dash (-) response means no test result.

johnsongrass = experiment: Test C postemergence; assay type: in vivo, Sorghum halepense
Summary of the method: (§2)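 Injury was assessed visually against controls 13 to 15 days after application, with 0 meaning no effect and 100 full control; missing entries are shown as a dash. Preemergence sprays hit seeded loam–sand soil, postemergence sprays hit 1- to 4-leaf plants.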

soybean = experiment: Test C postemergence; assay type: in vivo, Glycine max
Summary of the method: as §2

[3] = 125 g ai/ha, 0 to 100 scale where 0 is no effect and 100 is complete control
[4] = 500 g ai/ha, 0 to 100 scale, 0 no effect, 100 complete control, approx. 10 days
[5] = 500 g ai/ha, 0 to 100 scale, 0 no effect, 100 complete control
[6] = 500 g ai/ha, 0 to 100 scale where 0 is no effect and 100 is complete control
[7] = Postemergence, 31 g ai/ha, scale 0 to 100 (0 no effect, 100 complete control), 13 to 15 days
[8] = Postemergence, 62 g ai/ha, scale 0 to 100 (0 no effect, 100 complete control)
[9] = 1000 g ai/ha, 0 to 100 scale, 0 no effect, 100 complete control
[10] = 8 g ai/ha, postemergence, 0 is no effect, 100 is complete control
[11] = 16 g ai/ha, postemergence, 0 is no effect, 100 is complete control

With `Fc1cnc(Oc2ccccc2-n2cc(Br)cn2)nc1` [Compound 10, 2-[2-(4-bromo-1H-pyrazol-1-yl)phenoxy]-5-fluoropyrimidine] the pest or weed control at 125 g/ha (giant foxtail [1]; Setaria faberi, pre-emergence, 240 h, 125 g ai/ha, 0 to 100 scale where 0 is no effect and 100 is complete control, read-out: Foxtail, Giant plant response rating) was 90%, the pest or weed control at 500 g/ha (giant foxtail [1]; Setaria faberi, pre-emergence, 240 h, 500 g ai/ha, 0 to 100 scale, 0 no effect, 100 complete control, approx. 10 days, read-out: Foxtail, Giant plant response rating) was 100% and the pest or weed control at 125 g/ha (barnyardgrass; Echinochloa crus-galli, post-emergence, 240 h, 125 g ai/ha, 0 to 100 scale where 0 is no effect and 100 is complete control, read-out: Plant response rating, Barnyardgrass) was 40%. The pest or weed control at 500 g/ha (barnyardgrass; Echinochloa crus-galli, post-emergence, 240 h, 500 g ai/ha, 0 to 100 scale, 0 no effect, 100 complete control, read-out: Plant response rating Barnyardgrass) was 90%, the pest or weed control at 125 g/ha (giant foxtail [2]; Setaria faberi, post-emergence, 240 h, 125 g ai/ha, 0 to 100 scale where 0 is no effect and 100 is complete control, read-out: Plant response rating, Foxtail, Giant) was 50% and the pest or weed control at 500 g/ha (giant foxtail [2]; Setaria faberi, post-emergence, 240 h, 500 g ai/ha, 0 to 100 scale, 0 no effect, 100 complete control, read-out: Plant response rating Foxtail, Giant) was 90%. It also gave a pest or weed control at 125 g/ha (morningglory; Ipomoea, post-emergence, 240 h, 125 g ai/ha, 0 to 100 scale where 0 is no effect and 100 is complete control, read-out: Plant response rating, Morningglory) of 90%, a pest or weed control at 500 g/ha (morningglory; Ipomoea, post-emergence, 240 h, 500 g ai/ha, 0 to 100 scale, 0 no effect, 100 complete control, read-out: Plant response rating Morningglory) of 100% and a pest or weed control at 125 g/ha (pigweed; Amaranthus retroflexus, post-emergence, 125 g ai/ha, 0 to 100 scale where 0 is no effect and 100 is complete control, read-out: Plant response rating, Pigweed) of 100%. It also gave a pest or weed control at 500 g/ha (pigweed; Amaranthus retroflexus, post-emergence, 240 h, 500 g ai/ha, 0 to 100 scale, 0 no effect, 100 complete control, read-out: Plant response rating Pigweed) of 100%, a pest or weed control at 250 g/ha (Heteranthera limosa; Heteranthera limosa, read-out: Plant response rating, Ducksalad) of 75% and a pest or weed control at 125 g/ha (Italian ryegrass; Lolium multiflorum, post-emergence, 125 g ai/ha, postemergence, read-out: Plant response rating (0 to 100), Ryegrass, Italian) of 5%. The pest or weed control at 250 g/ha (Italian ryegrass; Lolium multiflorum, post-emergence, 250 g ai/ha, postemergence, read-out: Plant response rating (0 to 100), Ryegrass, Italian) was 10%, the pest or weed control at 31 g/ha (Italian ryegrass; Lolium multiflorum, post-emergence, Postemergence, 31 g ai/ha, scale 0 to 100 (0 no effect, 100 complete control), 13 to 15 days, read-out: Plant response rating, Ryegrass, Italian) was 0% and the pest or weed control at 62 g/ha (Italian ryegrass; Lolium multiflorum, post-emergence, Postemergence, 62 g ai/ha, scale 0 to 100 (0 no effect, 100 complete control), read-out: Plant response rating, Ryegrass, Italian) was 0%. It also gave a pest or weed control at 125 g/ha (johnsongrass; Sorghum halepense, post-emergence, 125 g ai/ha, postemergence, read-out: Plant response rating (0 to 100), Johnsongrass) of 5%, a pest or weed control at 250 g/ha (johnsongrass; Sorghum halepense, post-emergence, 250 g ai/ha, postemergence, read-out: Plant response rating (0 to 100), Johnsongrass) of 10% and a pest or weed control at 31 g/ha (johnsongrass; Sorghum halepense, post-emergence, Postemergence, 31 g ai/ha, scale 0 to 100 (0 no effect, 100 complete control), 13 to 15 days, read-out: Plant response rating, Johnsongrass) of 5%. It also gave a Soybean plant response rating (crop injury, 0-100 scale) at 125 g/ha (soybean; Glycine max, post-emergence, 125 g ai/ha, postemergence, read-out: Plant response rating (0 to 100), Soybean) of 85%, a Soybean plant response rating (crop injury, 0-100 scale) at 250 g/ha (soybean; Glycine max, post-emergence, 250 g ai/ha, postemergence) of 95% and a Soybean plant response rating (crop injury, 0-100 scale) at 31 g/ha (soybean; Glycine max, post-emergence, Postemergence, 31 g ai/ha, scale 0 to 100 (0 no effect, 100 complete control), 13 to 15 days) of 50%. The Soybean plant response rating (crop injury, 0-100 scale) at 62 g/ha (soybean; Glycine max, post-emergence, Postemergence, 62 g ai/ha, scale 0 to 100 (0 no effect, 100 complete control)) was 75%.
In the case of `N#Cc1cccc(Oc2ncc(Cl)cn2)c1-n1cnc(Br)c1` [Compound 74], the “Plant response rating, Foxtail, Giant” value (giant foxtail [1]; [3]) is reported as 90, the “Foxtail, Giant plant response rating” value (giant foxtail [1]; [4]) is reported as 100 and the “Plant response rating, Barnyardgrass” value (barnyardgrass; [3]) is reported as 90. For the same compound, the “Plant response rating, Barnyardgrass” value (barnyardgrass; [5]) was 90, the “Plant response rating, Foxtail, Giant” value (giant foxtail [2]; [3]) was 80 and the “Plant response rating, Foxtail, Giant” value (giant foxtail [2]; [6]) was 90. For the same compound, the “Plant response rating, Morningglory” value (morningglory; [3]) was 80, the “Plant response rating, Morningglory” value (morningglory; [6]) was 100 and the “Plant response rating, Pigweed” value (pigweed; [3]) was 100. For the same compound, the “Plant response rating, Pigweed” value (pigweed; [6]) was 100, the “Plant response rating, Ducksalad” value (Heteranthera limosa) was 40 and the “Plant response rating (0 to 100), Ryegrass, Italian” value (Italian ryegrass; 125 g ai/ha, postemergence) was 0. For the same compound, the “Plant response rating (0 to 100), Ryegrass, Italian” value (Italian ryegrass; 250 g ai/ha, postemergence) was 5, the “Plant response rating, Ryegrass, Italian” value (Italian ryegrass; [7]) was 0 and the “Plant response rating, Ryegrass, Italian” value (Italian ryegrass; [8]) was 0. For the same compound, the “Plant response rating (0 to 100), Johnsongrass” value (johnsongrass; 125 g ai/ha, postemergence) was 25, the “Plant response rating (0 to 100), Johnsongrass” value (johnsongrass; 250 g ai/ha, postemergence) was 25 and the “Plant response rating, Johnsongrass” value (johnsongrass; [8]) was 0. The “Plant response rating (0 to 100), Soybean” value (soybean; 125 g ai/ha, postemergence) was 75, the “Plant response rating (0 to 100), Soybean” value (soybean; 250 g ai/ha, postemergence) was 80 and the “Plant response rating, Soybean” value (soybean; [7]) was 40. The “Plant response rating, Soybean” value (soybean; [8]) was 65.
In the case of `N#Cc1cccc(Oc2ncc(F)cn2)c1-n1cc(Br)cn1` [Compound 62], the “Plant response rating, Foxtail, Giant” value (giant foxtail [1]; [3]) is reported as 90, the “Foxtail, Giant plant response rating” value (giant foxtail [1]; [4]) is reported as 100 and the “Plant response rating, Barnyardgrass” value (barnyardgrass; [3]) is reported as 90. For the same compound, the “Plant response rating, Barnyardgrass” value (barnyardgrass; [5]) was 100, the “Plant response rating, Foxtail, Giant” value (giant foxtail [2]; [3]) was 90 and the “Plant response rating, Foxtail, Giant” value (giant foxtail [2]; [5]) was 100. For the same compound, the “Plant response rating, Morningglory” value (morningglory; [3]) was 90, the “Plant response rating, Morningglory” value (morningglory; [5]) was 100 and the “Plant response rating, Pigweed” value (pigweed; [3]) was 100. For the same compound, the “Plant response rating, Pigweed” value (pigweed; [5]) was 100, the “Plant response rating, Ducksalad” value (Heteranthera limosa) was 80 and the “Plant response rating (0 to 100), Ryegrass, Italian” value (Italian ryegrass; 125 g ai/ha, postemergence) was 5. The “Plant response rating (0 to 100), Ryegrass, Italian” value (Italian ryegrass; 250 g ai/ha, postemergence) was 15, the “Plant response rating, Ryegrass, Italian” value (Italian ryegrass; [7]) was 0 and the “Plant response rating, Ryegrass, Italian” value (Italian ryegrass; [8]) was 0. The “Plant response rating (0 to 100), Johnsongrass” value (johnsongrass; 125 g ai/ha, postemergence) was 10, the “Plant response rating (0 to 100), Johnsongrass” value (johnsongrass; 250 g ai/ha, postemergence) was 15 and the “Plant response rating, Johnsongrass” value (johnsongrass; [7]) was 5. The “Plant response rating, Johnsongrass” value (johnsongrass; [8]) was 5, the “Plant response rating (0 to 100), Soybean” value (soybean; 125 g ai/ha, postemergence) was 95 and the “Plant response rating (0 to 100), Soybean” value (soybean; 250 g ai/ha, postemergence) was 95. The “Plant response rating, Soybean” value (soybean; [7]) was 45 and the “Plant response rating, Soybean” value (soybean; [8]) was 85.
For `CC(=NO)c1cn(-c2c(Br)cccc2Oc2ncc(Cl)cn2)nn1` [Compound 115], the “Foxtail, Giant plant response rating” value (giant foxtail [1]; 1000 g ai/ha, 0 to 100 scale, 0 no effect, 100 complete control, approx. 10 days) was 100, the “Plant response rating, Barnyardgrass” value (barnyardgrass; [9]) was 90 and the “Plant response rating, Foxtail, Giant” value (giant foxtail [2]; [9]) was 90. For the same compound, the “Plant response rating, Morningglory” value (morningglory; [9]) was 100, the “Plant response rating, Pigweed” value (pigweed; [9]) was 100 and the “Plant response rating, Ducksalad” value (Heteranthera limosa) was 70. The “Plant response rating (0 to 100), Ryegrass, Italian” value (Italian ryegrass; [10]) was 0, the “Plant response rating (0 to 100), Ryegrass, Italian” value (Italian ryegrass; [11]) was 0 and the “Plant response rating (0 to 100), Johnsongrass” value (johnsongrass; [10]) was 5. The “Plant response rating (0 to 100), Johnsongrass” value (johnsongrass; [11]) was 5, the “Plant response rating (0 to 100), Soybean” value (soybean; [10]) was 5 and the “Plant response rating (0 to 100), Soybean” value (soybean; [11]) was 10.
